From patent publication US4822799A, “Pyrazolopyridine analogs of mevalonolactone and derivatives thereof useful for inhibiting cholesterol biosynthesis in mammals” (Sandoz Pharm. Corp., priority 1988, dated 1989)

How the values were obtained:
[1] = tested on: 3β-hydroxysterol synthesis; assay: Test B. In Vivo Cholesterol Biosynthesis Inhibition Test; details: Rattus norvegicus, po, rats, orally administered, 0.1-200 mg/kg. body weight, read-out: ED50 (50% inhibition of 3β-hydroxysterol synthesis)
Procedure: Test B. In Vivo Cholesterol Biosynthesis Inhibition Test:
In this test the rats are orally administered the test substance (compound of Formula I) at a dose of 0.1-200 mg/kg. body weight. The obtained ED50 is the dose of the test substance observed or calculated to produce a 50% inhibition of 3β-hydroxysterol synthesis.

[2] = molecular target: T1, 3-hydroxy-3-methylglutaryl coenzyme A (HMG-CoA) reductase (Rattus norvegicus, UniProt P51639); assay: Test A. In Vitro Microsomal Assay of HMG-CoA Reductase Inhibition; format: biochemical; details: test substance 0.001-2,000 μmolar, read-out: IC50 (50% inhibition of HMG-CoA reductase activity)
T1 construct: from tissue; host or cells: liver microsomes of Sprague-Dawley rats (tissue and species from own knowledge of the cited documents)
T1 sequence (P51639 1-887): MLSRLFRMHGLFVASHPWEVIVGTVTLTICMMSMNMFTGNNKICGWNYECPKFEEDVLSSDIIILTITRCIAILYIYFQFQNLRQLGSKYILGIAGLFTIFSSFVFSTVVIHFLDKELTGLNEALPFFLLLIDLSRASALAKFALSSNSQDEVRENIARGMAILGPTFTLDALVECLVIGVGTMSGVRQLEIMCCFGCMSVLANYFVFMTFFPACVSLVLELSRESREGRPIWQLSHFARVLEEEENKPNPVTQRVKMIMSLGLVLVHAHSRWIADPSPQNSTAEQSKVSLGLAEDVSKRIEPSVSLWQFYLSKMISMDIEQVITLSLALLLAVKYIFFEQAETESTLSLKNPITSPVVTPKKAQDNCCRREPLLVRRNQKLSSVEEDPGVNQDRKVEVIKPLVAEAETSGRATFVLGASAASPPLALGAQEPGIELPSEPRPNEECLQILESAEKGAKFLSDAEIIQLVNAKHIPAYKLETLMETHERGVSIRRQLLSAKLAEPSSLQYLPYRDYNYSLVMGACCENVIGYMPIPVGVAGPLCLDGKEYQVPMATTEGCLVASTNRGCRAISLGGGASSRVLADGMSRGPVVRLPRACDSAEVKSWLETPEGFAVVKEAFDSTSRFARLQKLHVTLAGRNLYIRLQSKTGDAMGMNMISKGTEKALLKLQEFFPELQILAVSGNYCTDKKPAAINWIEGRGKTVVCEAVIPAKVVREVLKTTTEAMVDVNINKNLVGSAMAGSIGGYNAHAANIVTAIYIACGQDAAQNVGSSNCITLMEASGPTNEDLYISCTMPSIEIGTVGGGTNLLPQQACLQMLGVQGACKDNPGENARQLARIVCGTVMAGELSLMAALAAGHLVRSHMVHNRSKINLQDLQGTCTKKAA
Procedure: Test A. In Vitro Microsomal Assay of HMG-CoA Reductase Inhibition:
This test is carried out precisely as described in column 53 of U.S. Pat. No. 4,613,610 and on page 30 of World (PCT) Published patent application No. 84/02131, both of which are hereby incorporated by reference as if set forth herein in their entirety. The concentration of the test substance (compound of Formula I) in the assay system is 0.001-2,000 μmolar. The obtained IC50 is the concentration of the test substance in the assay system observed or calculated to produce a 50% inhibition of HMG-CoA reductase activity.

Row | Structure (SMILES) | ED50 [1] [mg/kg] | IC50 [2] [nM]
1 | CC[C@H](C)C(=O)O[C@H]1CCC=C2C=C[C@H](C)[C@H](CC[C@@H]3C[C@@H](O)CC(=O)O3)[C@H]21 [Compactin] | 3.5 | –
2 | Cc1nn(C)c2nc(C(C)C)c(/C=C/[C@@H](O)C[C@@H](O)CC(=O)O)c(-c3ccc(F)cc3)c12 [Example 2, Sodium (3R,5S)-(E)-3,5-dihydroxy-7-[1',3'-dimethyl-4'-(4"-fluorophenyl)-6'-(1"-methylethyl)-1H-pyrazolo[3,4-b]pyrid-5'-yl]hept-6-enoate] | – | 10
3 | CC[C@H](C)C(=O)O[C@H]1C[C@@H](C)C=C2C=C[C@H](C)[C@H](CC[C@@H]3C[C@@H](O)CC(=O)O3)[C@H]21 [Mevinolin] | 0.38 | –
